Measured values published in article PMC9061999, “Application of the Adverse Outcome Pathway Concept to In Vitro Nephrotoxicity Assessment: Kidney Injury due to Receptor-Mediated Endocytosis and Lysosomal Overload as a Case Study” (Frontiers in Toxicology, 2022).
Read-outs that look alike come from different tables or passages of the source.

Experiments:
NRK-52E cells [1] = assay: CellTiter-Glo cytotoxicity assay (KE3); type: cell-based, rat; conditions: for BMC10, KE3: in vitro POD from KE dose-response, cell viability CellTiter-Glo, NRK-52E, 24 h treatment, n = 3; for MOE, KE3: margin of exposure: BMC10 in NRK-52E vs rat plasma/serum concentration (cmax or css)
Procedure: Cells were plated into 96-well tissue culture plates (10,000 cells per well) and were allowed to grow for 48 h (NRK-52E) respectively 10 d (RPTEC/TERT1) prior to 24 h treatment with model stressors. Stock solution for each compound (2000 µM) was prepared in growth medium and serial dilutions (1:1) were made before each experiment. At the end of the 24 h treatment, cell viability was measured using the CellTiter-Glo® assay (Promega). CellTiter-Glo® reagents and buffer were mixed under light-protected conditions and 100 µL CellTiter-Glo® solution was added directly to each well followed by 2 min incubation on an orbital shaker and 10 min incubation at room temperature in the dark to stabilize the luminescence signal. The suspension was mixed via pipetting and 50 µL were transferred into white 96-well plates (PerkinElmer Inc.). The luminescence signal was measured on a multiplate reader (Mithras LB 940; Berthold). Each assay was performed in three independent experiments carried out in triplicates.

NRK-52E cells [2] = assay: LC-MS/MS analysis of intracellular concentration; type: in vitro ADME, rat; conditions: for Intracellular accumulation in NRK-52E compared to RPTEC-TERT1 cells: 24 h; for Intracellular concentration after recovery compared to the 24 h time-point: 34 µM for 24 h, then 24 h in fresh medium; for Time course of intracellular concentration: within the 24 h treatment period (1-2 min, 1, 3, 6, 24 h), n = 3
Procedure: NRK-52E and RPTEC/TERT1 cells were seeded in 12-well plates (120,000 cells per well) and were allowed to grow for 48 h (NRK-52E) or 10 d (RPTEC/TERT1) until they reached 100% confluence. After cells achieved 100% confluence, the supernatant was aspirated, and the cells were washed twice with 1 x PBS. Cells were treated with polymyxins at a final concentration of 34 µM for 24 h. Samples were taken at five different treatment time points (1–2 min, 1, 3, 6, and 24 h). In addition, a recovery sample was taken 24 h after the end of the 24 h treatment period. To this end, the supernatant was aspirated after 24 h treatment and the cells were washed three times with 1 x PBS to remove polymyxin B or colistin residues. Fresh growth medium was added, and the cells were incubated for another 24 h. At the end of each experiment, the cells were washed 3 times with 1 x PBS and trypsinized by adding 200 µL of trypsin. Detached cells were washed with 1,000 µL 1 x PBS and the cells were transferred to LoBind™ tubes (Eppendorf). Cell count was determined using a Fuchs-Rosenthal counting chamber (Hartenstein). Cells were centrifuged for 5 min at 4°C at 10.000 rpm and the supernatant was aspirated. Cells were resuspended in 1,000 µL 1 x PBS and centrifuged for 5 min at 4°C at 10.000 rpm. After centrifugation, the supernatant was aspirated, and the cell pellet was resuspended in 250 µL ammonium acetate buffer (10 mM) and 250 µL of 30% methanol with 1% acetic acid containing polymyxin B respectively colistin as an internal standard. Cells were sonicated for 10 min and centrifuged for 5 min at 4°C at 14.000 rpm. The supernatant was transferred quantitatively into new LoBind™ tubes (Eppendorf) and dried in a centrifugal vacuum concentrator for 2–3 h. To measure compound plastic binding, the empty 12 well plates were washed with 1.5 ml acetonitrile on an orbital shaker for 2 h and supernatant was collected. For sample purification via solid phase extraction, SPE cartridges Strata-X 33 µm polymeric reversed phase, 10 mg/1 ml (Phenomenex) were used. In the conditioning step the cartridges were rinsed with 200 µL methanol (100%) and subsequently with 200 µL ddH2O to activate the sorbent bed. The dried samples were dissolved in 200 µL 1% acetic acid and transferred onto the SPE cartridge. The SPE cartridge were rinsed once with 200 µL 1% acetic acid. Impurities were removed by rinsing the cartridge once with 200 µL 10% methanol. A fresh LoBind™ tube (Eppendorf) was placed under the SPE cartridge to eluate the samples by rinsing twice with 200 µL 90% methanol containing 1% acetic acid. The samples were dried in a centrifugal vacuum concentrator for 2–3 h. All samples were stored at −20°C until LC-MS/MS analysis.
A triple quadrupole mass spectrometer equipped with a Turbo-Ion® Spray source (QTrap API 2000; AB Sciex Instruments) was used for analyses. The mass spectrometer was coupled to an Agilent 1100 HPLC system consisting of a binary pump system, a vacuum degasser and an autosampler (Agilent 1,100). Chromatographic separation was performed at 40°C with a column oven (Knauer) on a Synergi Hydro-RP column (2 mm × 150 mm, 4 μm, 80 Å; Phenomenex) coupled to a precolumn (SecurityGuard™ Cartridges, AQ C18 4 × 2.0 mm) using a binary step gradient at a flow rate of 0.2 ml/min with the following gradient: 0 min 100% A, 15 min 0% A, 20 min 0% A, 21 min 100% A, and 30 min 100% A. Mobile phase consisted of 3% acetonitrile containing 1% acetic acid and (solvent A) and 97% acetonitrile containing 1% acetic acid (solvent B). The injection volume was set to 10 µL and the total analysis time was 30 min. Following chromatographic separation, multiple ion monitoring was used to detect the triply charged, twice charged, and single charged ions of polymyxins (Table 1). […]

[3] = cited from earlier work
Excerpt: Plasma/Serum Treatment KE BMC10 [µM] Concentration MOE [µM] RPTEC/TERT1 / Human KE1 4.2 1.0 - 7.4 Polymyxin B KE2 6.8 1.7 - 11.9 0.57 – 4.1 (1,2 ...

Substance	BMC10, KE3 (NRK-52E cells [1]) [µM]	MOE, KE3 (NRK-52E cells [1])	Intracellular accumulation in NRK-52E compared to RPTEC-TERT1 cells (NRK-52E cells [2]; 34 µM)	Intracellular concentration compared to polymyxin B (NRK-52E cells [2]; NRK-52E, 34 µM)	Intracellular concentration after recovery compared to the 24 h time-point (NRK-52E cells [2]; NRK-52E)	Time course of intracellular concentration (NRK-52E cells [2]; NRK-52E, 34 µM)	Plasma/Serum Concentration ([3]; human, cmax or css at therapeutic or known nephrotoxic doses, ref 3,4 (Tran et al., 2016; Sorli et al., 2017)) [µM]	Plasma/Serum Concentration ([3]; human, cmax or css at therapeutic or known nephrotoxic doses, ref 1,2 (Sandri et al., 2013; Manchandani et al., 2016)) [µM]	Plasma/Serum Concentration ([3]; rat, cmax or css at human equivalent or nephrotoxic doses, ref 5 (Nilsson et al., 2015)) [µM]
Colistin	135.5	13.0 – 26.6	significantly lower in NRK-52E cells	lower intracellular concentrations	declined during the 24 h off-dose recovery period	continuous rise in the intracellular concentration	0.42 to 8.1	–	–
Polymyxin B	19.9	2.8	significantly lower in NRK-52E cells	–	declined during the 24 h off-dose recovery period	continuous rise in the intracellular concentration	–	0.57 to 4.1	7.0 to 7.1
